Results from PubChem BioAssay AID330 (DTP/NCI, 2004).
Where “and” joins values, the source holds several entries; their conditions need not be identical. Equal entries are not always repeated. Toxic doses and inconclusive results are not listed.

Tested on: P388 leukemia ip, CD2F1 mice, survival T/C
Assay: NCI In Vivo Anticancer Drug Screen. Data for tumor model P388 Leukemia (intraperitoneal) in CD2F1 (CDF1) mice
Conditions: endpoint: median survival time, higher = longer survival
Summary of the method: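 Mice carrying the transplanted tumor received test compound or vehicle. Survival was recorded in each group, and the value is the treated-group measurement divided by that of the vehicle-treated control group.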

[1] = dose: 100.0 mg/kg/injection, schedule: Q04DX003 (ip), vehicle: saline with Tween-80
[2] = dose: 12.5 mg/kg/injection, schedule: Q01DX009 (ip), vehicle: saline with Tween-80
[3] = dose: 25.0 mg/kg/injection, schedule: Q01DX009 (ip), vehicle: saline with Tween-80
[4] = dose: 50.0 mg/kg/injection, schedule: Q01DX009 (ip), vehicle: saline with Tween-80
[5] = dose: 50.0 mg/kg/injection, schedule: Q01DX005 (ip), vehicle: Klucel (hydroxypropylcellulose) (HPC)
[6] = dose: 100.0 mg/kg/injection, schedule: Q01DX005 (ip), vehicle: Klucel (hydroxypropylcellulose) (HPC)
[7] = dose: 200.0 mg/kg/injection, schedule: Q01DX005 (ip), vehicle: Klucel (hydroxypropylcellulose) (HPC)
[8] = dose: 60.0 mg/kg/injection, schedule: Q01DX005 (ip), vehicle: saline with Tween-80
[9] = dose: 120.0 mg/kg/injection, schedule: Q01DX005 (ip), vehicle: saline with Tween-80
[10] = dose: 240.0 mg/kg/injection, schedule: Q01DX005 (ip), vehicle: saline with Tween-80
[11] = dose: 50.0 mg/kg/injection, schedule: Q01DX009 (ip), vehicle: Klucel (hydroxypropylcellulose) (HPC)

CC(=O)NC(CSC(c1ccccc1)c1ccccc1)C(C)=O (stereo not given)
T/C [1]: 103 % of control | T/C (dose: 200.0 mg/kg/injection, schedule: Q04DX003 (ip), vehicle: saline with Tween-80): 106 % of control | T/C (dose: 400.0 mg/kg/injection, schedule: Q04DX003 (ip), vehicle: saline with Tween-80): 113 % of control

Nc1nc2c(c(=O)[nH]1)N(C=O)C(CNc1ccc(C(=O)N[C@@H](CCC(=O)O)C(=O)O)cc1)CN2 (stereo not given in full)
T/C (dose: 125.0 mg/kg/injection, schedule: Q04DX003 (ip), vehicle: saline): 108 % of control | T/C (dose: 250.0 mg/kg/injection, schedule: Q04DX003 (ip), vehicle: saline): 99 % of control | T/C (dose: 500.0 mg/kg/injection, schedule: Q04DX003 (ip), vehicle: saline): 99 % of control

O=P(c1ccccc1)(c1ccccc1)c1ccccc1.O=P(c1ccccc1)(c1ccccc1)c1ccccc1.O=P(c1ccccc1)(c1ccccc1)c1ccccc1.O=P(c1ccccc1)(c1ccccc1)c1ccccc1.[Ni+2].[O-][Cl+3]([O-])([O-])O
T/C [2]: 96 % of control | T/C [3]: 101 % of control | T/C [4]: 90 % of control and 95 % of control

CCOC(=O)C(C#N)C(c1ccc2c(c1)OCO2)N(CCO)CCO (stereo not given)
T/C [5]: 93 % of control | T/C [6]: 99 % of control | T/C [7]: 99 % of control

CC(=O)C1(O)CCC2(O)C3(O)CC=C4CC(O)CCC4(C)C3CC(OC(=O)c3ccc(O)cc3)C12C (stereo not given)
T/C (dose: 11.75 mg/kg/injection, schedule: Q01DX005 (ip), vehicle: distilled water + Tween-80 + alcohol): 93 % of control | T/C (dose: 23.5 mg/kg/injection, schedule: Q01DX005 (ip), vehicle: distilled water + Tween-80 + alcohol): 94 % of control | T/C (dose: 47.0 mg/kg/injection, schedule: Q01DX005 (ip), vehicle: distilled water + Tween-80 + alcohol): 95 % of control | T/C (dose: 94.0 mg/kg/injection, schedule: Q01DX005 (ip), vehicle: distilled water + Tween-80 + alcohol): 94 % of control

CCOC(=O)C(C)Oc1ccc(Cn2ccnn2)cc1 (stereo not given)
T/C [8]: 98 % of control | T/C [9]: 98 % of control | T/C [10]: 96 % of control

O=S(=O)([O-])[O-].OCCNCCNCC[OH2+].OCCNCCNCC[OH2+].[Ni+2]
T/C (dose: 12.5 mg/kg/injection, schedule: Q01DX009 (ip), vehicle: saline): 102 % of control | T/C (dose: 25.0 mg/kg/injection, schedule: Q01DX009 (ip), vehicle: saline): 93 % of control

CCC1=C2C(=O)c3ccccc3C2=C(C)S(=O)(=O)O1
T/C (dose: 50.0 mg/kg/injection, schedule: Q04DX003 (ip), vehicle: saline with Tween-80): 109 % of control | T/C [1]: 86 % of control

CC(/C=C/c1ccccc1)=N\NC(=O)c1ccc(O)cc1
T/C [5]: 101 % of control | T/C [6]: 97 % of control | T/C [7]: 93 % of control

COC(=O)c1ccc(N2C(=O)C=CC2=O)cc1
T/C (dose: 0.75 mg/kg/injection, schedule: Q01DX009 (ip), vehicle: saline with Tween-80): 100 % of control | T/C (dose: 1.5 mg/kg/injection, schedule: Q01DX009 (ip), vehicle: saline with Tween-80): 100 % of control | T/C (dose: 3.0 mg/kg/injection, schedule: Q01DX009 (ip), vehicle: saline with Tween-80): 120 % of control

COc1cc(CC(=O)O)c([N+](=O)[O-])cc1C
T/C (dose: 25.0 mg/kg/injection, schedule: Q01DX001 (ip), vehicle: Klucel (hydroxypropylcellulose) (HPC)): 90 % of control | T/C (dose: 50.0 mg/kg/injection, schedule: Q01DX001 (ip), vehicle: Klucel (hydroxypropylcellulose) (HPC)): 91 % of control | T/C (dose: 100.0 mg/kg/injection, schedule: Q01DX001 (ip), vehicle: Klucel (hydroxypropylcellulose) (HPC)): 91 % of control

CN1CCN(CC2CCOc3cc(Cl)ccc3C2=O)CC1 (stereo not given)
T/C (dose: 100.0 mg/kg/injection, schedule: Q04DX003 (ip), vehicle: saline): 105 % of control | T/C (dose: 200.0 mg/kg/injection, schedule: Q04DX003 (ip), vehicle: saline): 108 % of control

Nc1nc(Sc2ccc([N+](=O)[O-])c3nonc23)c2ncn(C3OC(CO)C(O)C3O)c2n1 (stereo not given)
T/C (dose: 3.12 mg/kg/injection, schedule: Q01DX009 (ip), vehicle: Klucel (hydroxypropylcellulose) (HPC)): 113 % of control | T/C (dose: 6.25 mg/kg/injection, schedule: Q01DX009 (ip), vehicle: Klucel (hydroxypropylcellulose) (HPC)): 113 % of control | T/C (dose: 25.0 mg/kg/injection, schedule: Q01DX009 (ip), vehicle: Klucel (hydroxypropylcellulose) (HPC)): 122 % of control | T/C [11]: 102 % of control and 118 % of control

CC(C(/C=N/NC(N)=S)=N/NC(N)=S)N1C(=O)c2ccccc2C1=O (stereo not given)
T/C [8]: 97 % of control | T/C [9]: 94 % of control | T/C [10]: 88 % of control

CN(C)c1ccc(NC(=S)Nc2ccccc2C(F)(F)F)cc1
T/C [11]: 100 % of control | T/C (dose: 100.0 mg/kg/injection, schedule: Q01DX009 (ip), vehicle: Klucel (hydroxypropylcellulose) (HPC)): 100 % of control | T/C (dose: 200.0 mg/kg/injection, schedule: Q01DX009 (ip), vehicle: Klucel (hydroxypropylcellulose) (HPC)): 96 % of control

Cc1cc(N)c2ccccc2c1O
T/C [2]: 110 % of control | T/C [3]: 124 % of control | T/C [4]: 108 % of control

OC1c2ccccc2C(O)c2c1ccc1c2CN(Cc2ccccc2)CC1 (stereo not given)
T/C (dose: 60.0 mg/kg/injection, schedule: Q01DX005 (ip), vehicle: Klucel (hydroxypropylcellulose) (HPC)): 89 % of control | T/C (dose: 120.0 mg/kg/injection, schedule: Q01DX005 (ip), vehicle: Klucel (hydroxypropylcellulose) (HPC)): 92 % of control | T/C (dose: 240.0 mg/kg/injection, schedule: Q01DX005 (ip), vehicle: Klucel (hydroxypropylcellulose) (HPC)): 92 % of control
